# Test results from ChEMBL document CHEMBL1201862, “PubChem BioAssay data set” (2004).
#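 1) Cells in 96-well plates. 2) Compound, 48 h, 5 concentrations. 3) Linear interpolation between surrounding doses. 4) Unreached endpoint = highest concentration. GI50 = concentration required for 50% inhibition of growth.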 Activity calls are given as the source filed them. No stated cut-off is given here; in the data, active = GI50 up to about 1.1 µM and inactive = higher. Where a SMILES comes first, the peptide text is derived from it. The star is where a group is joined. CH2Cl = ClC*
# Legend:
# Assay in all cases: NCI anticancer screen, dose series, 48 h
# Malme-3M = tested on: Malme-3M
# M14 = tested on: M14
# HT-29 = tested on: HT-29
# MDA-MB-231 = tested on: MDA-MB-231
# SK-MEL-2 = tested on: SK-MEL-2
# NCI-H522 = tested on: NCI-H522
# TK-10 = tested on: TK-10
# HCT-116 = tested on: HCT-116
# LOX IMVI = tested on: LOX IMVI
# A498 = tested on: A498
# BT-549 = tested on: BT-549
# UACC-257 = tested on: UACC-257
# SK-MEL-28 = tested on: SK-MEL-28
# HL-60 = tested on: HL-60
# SF-295 = tested on: SF-295
# OVCAR-3 = tested on: OVCAR-3
# SNB-19 = tested on: SNB-19
# 786-0 = tested on: 786-0
# HCC 2998 = tested on: HCC 2998
# NCI/ADR-RES = tested on: NCI/ADR-RES
SMILES,GI50 (Malme-3M),GI50 (M14),GI50 (HT-29),GI50 (MDA-MB-231),GI50 (SK-MEL-2),GI50 (NCI-H522),GI50 (TK-10),GI50 (HCT-116),GI50 (LOX IMVI),GI50 (A498),GI50 (BT-549),GI50 (UACC-257),GI50 (SK-MEL-28),GI50 (HL-60),GI50 (SF-295),GI50 (OVCAR-3),GI50 (SNB-19),GI50 (786-0),GI50 (HCC 2998),GI50 (NCI/ADR-RES)
C=C(C=O)c1c2c(nc3ccccc13)C(=O)c1ccccc1C2=O,1.42 µM (inactive),0.562 µM (active),0.47 µM (active),1.18 µM (inactive),1.37 µM (inactive),0.366 µM (active),1.02 µM (active),0.619 µM (active),0.316 µM (active),1.46 µM (inactive),1.82 µM (inactive),1.49 µM (inactive),0.684 µM (active),0.31 µM (active),1.29 µM (inactive),0.398 µM (active),1.64 µM (inactive),0.826 µM (active),2.75 µM (inactive),0.265 µM (active)
CC1=C[C@H]([C@H]2C=C(C)C(C(N)=O)=CN2Cc2c(Cl)cccc2Cl)N(Cc2c(Cl)cccc2Cl)C=C1C(N)=O,> 75 µM (inactive),> 75 µM (inactive),> 75 µM (inactive),> 75 µM (inactive),> 75 µM (inactive),57.1 µM (inactive),> 75 µM (inactive),> 75 µM (inactive),> 75 µM (inactive),55.3 µM (inactive),> 75 µM (inactive),73.8 µM (inactive),> 75 µM (inactive),> 75 µM (inactive),> 75 µM (inactive),> 75 µM (inactive),> 75 µM (inactive),> 75 µM (inactive),> 75 µM (inactive),> 75 µM (inactive)
Nc1c(-c2ccc(Cl)c(Cl)c2)c2ccc([N+](=O)[O-])cc2c(=O)n1-c1nc2ccccc2s1,0.403 µM (active),0.675 µM (active),0.824 µM (active),0.614 µM (active),0.369 µM (active),0.193 µM (active),0.594 µM (active),0.202 µM (active),0.538 µM (active),0.566 µM (active),0.762 µM (active),0.471 µM (active),18.2 µM (inactive),0.318 µM (active),0.551 µM (active),0.382 µM (active),0.418 µM (active),0.767 µM (active),18.6 µM (inactive),0.577 µM (active)
Cc1n(Cc2ccccc2)c2c([n+]1C)C(=O)c1ccccc1C2=O,0.0171 µM (active),0.0902 µM (active),0.0417 µM (active),0.0583 µM (active),0.132 µM (active),0.027 µM (active),0.265 µM (active),0.0416 µM (active),0.0473 µM (active),0.129 µM (active),0.0822 µM (active),0.034 µM (active),0.0948 µM (active),0.0318 µM (active),0.199 µM (active),< 0.0136 µM (active),0.0581 µM (active),0.0845 µM (active),0.236 µM (active),21.1 µM (inactive)
COc1ccc2oc(=O)c(CC=C(C)C)c(O)c2c1C,> 100 µM (inactive),> 100 µM (inactive),> 100 µM (inactive),> 100 µM (inactive),> 100 µM (inactive),> 100 µM (inactive),> 100 µM (inactive),> 100 µM (inactive),> 100 µM (inactive),> 100 µM (inactive),> 100 µM (inactive),> 100 µM (inactive),> 100 µM (inactive),> 100 µM (inactive),> 100 µM (inactive),> 100 µM (inactive),> 100 µM (inactive),> 100 µM (inactive),> 100 µM (inactive),> 100 µM (inactive)
CC(=O)NC(CC(C)C)C(=O)NC(Cc1ccccc1)C(=O)CCl (stereo not drawn) (Ac-Leu-Phe-CH2Cl; configuration not given here),5.05 µM (inactive),6.89 µM (inactive),8.38 µM (inactive),12.1 µM (inactive),10.3 µM (inactive),2.51 µM (inactive),10.4 µM (inactive),5.22 µM (inactive),2.67 µM (inactive),18.8 µM (inactive),14.9 µM (inactive),7.73 µM (inactive),10.6 µM (inactive),2.21 µM (inactive),18.8 µM (inactive),13.2 µM (inactive),20 µM (inactive),4 µM (inactive),14.9 µM (inactive),10.9 µM (inactive)
